Results published in patent US9642875B2, “Compounds and their effects on appetite control and insulin sensitivity” (priority 2012, dated 2017).
Entries after “also recorded” stand apart in the source; their conditions may differ. Where two headings read alike, the source gives them in different places.

Assays:
[1] = type: in vivo, human; conditions: 10 g, 24 hour pooled urine, n=5
Experimental: The mean (±SEM) age, weight and body mass index (BMI) was 32±4 years, 75.0±4.0 kg and 25.0±1.3 kg/m^2, respectively.
(§1) The inclusion criteria for the investigation were a BMI of 20 to 35 kg/m^2 and 21 to 65 years of age.
Subjects were studied on four occasions one week apart. […] Cumulative ^13CO2 excretion was also calculated. Blood was collected serially throughout the study.
Plasma was collected at −15, 0, 15, 30, 60, 90, 120, 180, 240, 300, 360 min for analysis of ^13C propionate enrichment by GC-combustion-IRMS (GC-C-IRMS). Acetate ^13C enrichment was also measured in the same analysis as a control for dietary influence on SCFA ^13C enrichment and for evidence of inter-conversion between propionate and acetate. Data were expressed as δ^13C (per mil or ‰) which represents the change in the measured ratio in parts per thousand from the internationally accepted standard carbon Vienna Pee Dee Belemnite (VPDB). Urine was analyzed for ^13C propionate by GC-C-IRMS. Urine was collected and pooled from just before consumption of the propionate ester for a period of 24 hours. Two 25 ml aliquots were collected and stored at −20° C. until analysis. Isotopic enrichment was expressed as δ^13C (‰). SCFA concentrations (mmol/L) were measured relative to an internal standard (3-methyl valerate).

[2] = type: in vivo, human
Experimental: Twenty healthy subjects (15 males and 5 females) were recruited for the food intake investigation. The mean (±SEM) age, weight and body mass index (BMI) was 31±2 years, 75.0±3.0 kg and 25.4±0.8 kg/m^2, respectively.
as §1
The study was performed in a randomized, double-blind, crossover manner, with each subject studied on two occasions >4 days apart. […] The amount of food was quantified preprandially and postprandially, and energy intake was calculated. […] In addition, VAS were also completed to assess the palatability of the standardized breakfast.
Differences in energy intake and incremental area under the curve (iAUC) for plasma hormone levels and VAS between trials were assessed using Paired Student's t tests. […] Significant effects were followed up by post hoc comparisons (Dunnett). P values<0.05 were considered statistically significant. Data are presented as means±SEM.

[3] = Text: Healthy men and women aged 40-65 years, with a BMI of 25-40 kg/m^2 were recruited from the general public. Potential subjects were excluded if they had clinically significant illnesses (including type 1 or type 2 diabetes), were taking medication known to affect appetite and/or body weight, a weight loss of 3 kg or greater in the preceding two months, smoking, substance abuse, psychiatric illness, restrained eating (Dutch eating behavior questionnaire: male score >2.25; female score >2.80), and any abnormalities detected on physical examination, electrocardiography, or screening blood tests (measurement of complete blood count, electrolytes, fasting glucose, thyroid function and liver function). Women were ineligible if they were pregnant or breast-feeding. […] The study was carried out in accordance with the Declaration of Helsinki.
The study was conducted in a randomized, double-blind, placebo-controlled, parallel design. Two-day study visits were required at baseline (week 0) and after 24 weeks of dietary supplementation. On the day prior to each study visit, subjects were asked to consume a standard evening meal, fast overnight from 22:00 and to avoid strenuous physical activity and alcohol. All study visits commenced between 08:00 and 09:00. […] The dietary supplement was supplied to subjects in ready-to-use sachets and they were instructed to mix the contents into their normal diet once a day during the 24 week treatment period. All subjects were instructed to maintain their usual dietary and activity habits during the intervention period. […] After 8 and 16 weeks of the intervention period, subjects were invited to attend follow-up visits to record body weight and monitor compliance and gastrointestinal side-effects. After 24 weeks, measurements taken at baseline were repeated. Subjects returned all their used and unused sachets to estimate compliance. Symptom diary was also collected over the period of the study.
At study visits, a cannula was inserted into an antecubital vein and baseline blood samples were collected at −10 and 0 min to assess plasma concentrations of glucose, insulin, PYY and GLP-1. Following the 0 min sample, subjects were served a standardized breakfast (398 kcal; 71.2 g CHO, 7.9 g fat, 10.3 g protein). […] Postprandial blood samples were taken at 15, 30, 60, 90, 120, 180, 240 and 300 min and collected into heparin-coated tubes containing 0.2 ml of aprotinin (Bayer, UK). GLP-1- and PYY-like immunoreactivity was measured using specific and sensitive in-house radioimmunoassays. Insulin-like immunoreactivity was measured using an ultra-sensitive human insulin radioimmunoassay (Millipore) and plasma glucose was measured using an Abbott Architect ci8200 analyser (Abbott Diagnostics, USA). At 300 min subjects were offered a buffet lunch with food served in excess and subjects were asked to eat until they were comfortably full. The amount of food was quantified and energy intake calculated. Subjective hunger, satiety, and nausea were monitored with the use of 100 mm visual analog scales (VAS). Subjects were asked to complete the VAS before each blood sample. In addition, breath H2 was measured at 0, 60, 120, 180, 240 and 300 min (Bedfont Scientific, Kent UK) in a subset of each group (9 in the propionate ester group, 8 in the inulin control group).
Body composition was assessed using magnetic resonance imaging (MRI) and spectroscopy (MRS). […] Body weight was measured in all subjects to the nearest 0.1 kg (TBF-300, Tanita) and taken while subjects were wearing light clothing.

[4] = test system: Bifidobacterium spp (Bif164); test: faecal batch culture fermentation with fluorescent in situ hybridisation; type: cell-based
Experimental: (§2) Faecal samples were obtained from three healthy human volunteers (one female and two males; age 30-50 years; BMI 25-31). Volunteers were excluded if they suffered from any gastrointestinal disorder (e.g. ulcerative colitis, Crohn's disease, irritable bowel syndrome, peptic ulcers and cancer) and/or had taken antibiotics in the six months preceding sample donation. Samples were kept under anaerobic conditions (10% H2, 10% CO2 and 80% N2) and used within a maximum of 30 minutes following collection. Samples were diluted 1/10 w/w in anaerobic PBS (0.1 mol/1 phosphate buffer solution, pH 7.4) and homogenised in a stomacher (Stomacher 400, Seward, West Sussex, UK) for 2 minutes at normal speed.
Sterile batch culture fermenters (150 ml working volume) were set up in parallel and aseptically filled with 135 ml pre-reduced, sterile basal culture medium (peptone water 2 g/1 (Oxoid), yeast extract 2 g/1 (Oxoid, Basingstoke, UK), NaCl 0.1 g/l, K2HPO4 0.04 g/l, KH2PO4 0.04 g/l, MgSO4.7H2O 0.01 g/l, CaCl2.6H2O 0.01, NaHCO3 2 g/l, Tween 80 2 ml (BDH, Poole, UK), haemin 0.05 g/1, vitamin K1 10 cysteine.HCl 0.5 g/1, bile salts 0.5 g/1). The fermenters were gassed overnight with O2 free N2. Propionate inulin ester and inulin control substrates ( 1/10 w/v) were added to their respective fermenters just prior to the addition of the faecal slurry. […]

[5] = test system: Atopobium cluster (Ato291); test: as above; type: cell-based; conditions: between 10 and 34 h
Experimental: as §2
(§3) Sterile batch culture fermenters (150 ml working volume) were set up in parallel and aseptically filled with 135 ml pre-reduced, sterile basal culture medium (peptone water 2 g/1 (Oxoid), yeast extract 2 g/1 (Oxoid, Basingstoke, UK), NaCl 0.1 g/l, K2HPO4 0.04 g/l, KH2PO4 0.04 g/l, MgSO4.7H2O 0.01 g/l, CaCl2.6H2O 0.01, NaHCO3 2 g/l, Tween 80 2 ml (BDH, Poole, UK), haemin 0.05 g/1, vitamin K1 10 cysteine.HCl 0.5 g/1, bile salts 0.5 g/1). The fermenters were gassed overnight with O2 free N2. […] A substrate-free vessel was set up for each volunteer as the negative control.

[6] = test system: Bacteroides/Prevotella (Bac303); test: as above; type: cell-based; conditions: all sampling points
Experimental: as §2, §3

[7] = 10 g, 0-420 minute post oral administration, 20 subjects
[8] = 24 weeks vs baseline, fasting blood, listed as control

Substance: inulin
- urine 13C propionate enrichment δ13C [1]: −23.3±1.8 ‰
- fullness ratings, average iAUC [2, 7]: 26.6±2.9
- hunger ratings, average iAUC [2, 7]: −24.3±4.7
- pleasantness ratings, average iAUC [2, 7]: −26.6±4.6
- prospective food intake ratings, average iAUC [2, 7]: −19.9±3.6
- sickness ratings, average iAUC [2, 7]: −1.6±1.4
- glucose levels, average iAUC ([2]; 10 g, whole meal test): 0.28±0.12
- insulin levels, average iAUC ([2]; 10 g, whole meal test): 32.5±4.7
- food intake during standardised ad libitum buffet meal ([2]; 7 hours after intake of 10 g supplement, 20 subjects, mean±SEM): 1175 ± 104 kcal
- body weight gained ([3]; 10 g/day, after 24 weeks): 0.38 ± 0.69 kg
- breath hydrogen area under curve ([3]; 24 weeks): 5000±1480
- fasting breath hydrogen ([3]; 24 weeks): 19.1±7 ppm
- fasting glucose, insulin, HbA1c and triglyceride concentrations ([3]; 24 weeks): no significant effect
- alanine transaminase [3, 8]: significantly reduced; also recorded: significant improvements
- alkaline phosphatase [3, 8]: significantly reduced; also recorded: significant improvements
- total cholesterol [3, 8]: significantly reduced; also recorded: significant improvements
- subjects with substantial weight gain (≧5% baseline weight) ([3]; 24 weeks, number of subjects): 4 of 24
- subjects with weight gain ≧3% baseline weight ([3]; 24 weeks, number of subjects): 6 of 24
- ratio of internal adipose tissue:subcutaneous adipose tissue, within group ([3]; 24 weeks, p=0.002): significantly increased
- internal adipose tissue, within group ([3]; 24 weeks, p=0.049): significantly increased
- subjects with substantial weight gain (≧5% baseline weight) ([3]; 24 weeks, proportion): 17%
- subjects with weight gain ≧3% baseline weight ([3]; 24 weeks, proportion): 25%
- breath hydrogen area under curve ([3]; baseline): 2355±800
- fasting breath hydrogen ([3]; baseline): 9±3 ppm
- GLP-1 ΔAUC0-300 min ([3]; baseline (week 0)): 3441 ± 843 pmol/L
- food intake at buffet lunch ([3]; baseline (week 0)): 678 ± 69 kcal
- insulin response AUC0-300 min ([3]; baseline (week 0)): 9285±882 μU/mL
- plasma PYY ΔAUC0-300 min ([3]; baseline (week 0)): 962 ± 869 pmol/L
- glycemic response AUC0-300 min ([3]; baseline (week 0), standardized breakfast): 1600 ± 51 pmol/L
- plasma PYY and GLP-1 release, week 24 vs baseline ([3]; postprandial period, within group): unaffected
- GLP-1 ΔAUC0-300 min ([3]; week 24): 2278 ± 1000 pmol/L
- bloating and flatulence (side effect profile) ([3]; week 24): significant increase
- food intake at buffet lunch ([3]; week 24): 651 ± 64 kcal
- insulin response AUC0-300 min ([3]; week 24): 8781±731 μU/mL
- plasma PYY ΔAUC0-300 min ([3]; week 24): 656 ± 880 pmol/L
- glycemic response AUC0-300 min ([3]; week 24, standardized breakfast): 1691 ± 54 pmol/L
- reduction of food intake ([3]; week 24 vs baseline): 4.0%
- insulin response, week 24 vs baseline ([3]; within group): not significantly different
- postprandial glucose (glycemic) response, week 24 vs baseline ([3]; within group, listed as control): significantly greater; also recorded: significant deterioration
- Bif164 labelled cells compared to baseline ([4]; all time points (10, 24, 34, 48 h)): significantly increased
- Bif164 levels compared to propionate inulin ester cultures ([4]; throughout fermentation): significantly higher
- Ato291 labelled cells compared to baseline [5]: increased significantly
- Bac303 labelled cells compared to baseline [6]: significant increases
